Results taken from patent US20120164731A1, “METHOD OF INDUCING DIFFERENTIATION FROM PLURIPOTENT STEM CELLS TO SKELETAL MUSCLE PROGENITOR CELLS” (KYOTO UNIVERSITY, priority 2009, published 2012).

Tests used:
[1] = tested on: mouse iPS cells (iPS-Nanog-20D-17); test: Induction of differentiation from iPS cells to primitive streak mesodermal cells (PDGFRα FACS, viable cell count); type: cell-based; conditions: for cell proliferation / survival: IGF-1 and/or HGF added or not
Method: Differentiation of iPS cells was induced using a serum-free basal medium for differentiation induction prepared by adding 0.2% bovine serum albumin (Sigma), 100 μM 2-mercaptoethanol (Invitrogen), 50 mU/L penicillin and 50 μg/L streptomycin to S-Clone SF-03 (Sanko Junyaku Co., Ltd.). Various growth factors were added to the medium, and their effects were examined. Eventually, the following growth factors were used at the concentrations indicated.
(§1) Undifferentiated cells were detached from the dish as in the passage subculture, and twice washed with the differentiation induction basal medium. 10 ml of the culture medium for the first 3 days was added to a 10 cm cell culture dish coated with collagen type IV (Nitta Gelatin), and 500,000 undifferentiated iPS cells were seeded thereinto. The cells were cultured in an incubator adjusted to 37° C., 5% CO2, and 100% humidity for 3 days, after which the medium was replaced with the culture medium for the last 3 days. The cells were thus differentiation-induced for a total of 6 days, from which skeletal muscle progenitor cells were separated by the method of cell separation described below, and these were used in the subsequent experiments.
(§2) The mouse iPS cells induced by the above-described differentiation induction method were divided into a population of skeletal muscle progenitor cells and a population of other cells using FACS Aria (Becton Dickinson). The cells were stained using antibodies as described previously [Sakurai, H. et al., Stem Cells 24, 575-586 (2006)]. Three different rat monoclonal antibodies were used: APA5 (anti-PDGFRα), ECCD2 (anti-ECD) and SM/C-2.6. The former two were supplied by Dr. Nishikawa [Sakurai, H. et al., Stem Cells 24, 575-586 (2006)], and the remaining one by Dr. Yamamoto [Fukada, S. et al., Exp Cell Res., 296, 245-255 (2004)]. The APA5 and SM/C-2.6 were conjugated with biotin (PIERCE) and fluorescently labeled using streptavidin-APC as a secondary antibody. The ECCD2 was directly conjugating with Alexa488 (Molecular Probes) by a conventional method and fluorescently labeled. The fluorescently labeled cells were suspended in Hanks' balanced salt solution (Invitrogen) supplemented with 1% bovine serum albumin to obtain a cell density of 5,000,000 cells per mL, fluorescence was examined and analyzed using FACS Aria, and the PDGFRα-positive fraction was separated and recovered.
With this in mind, a first experiment was performed to determine whether the addition of growth factors other than BMP4 supports the survival of iPS cells and promotes their differentiation into primitive streak mesodermal cells (hereinafter sometimes simply referred to as “mesoderm”). Activin A, IGF-1, and HGF were examined as growth factor candidates (FIG. 1A, italicized). With Activin A added to all culture conditions examined, 4 conditions were analyzed: “neither IGF-1 nor HGF was added”, “IGF-1 was added alone”, “HGF was added alone”, and “both were added”. The iPS cell used was iPS-Nanog-20D-17. […] However, the viable cell count was about 3 times higher in the IGF-1-alone addition group than in the IGF-1-HGF-concurrent addition group (FIG. 1B, right).
The influences of the concentrations of BMP4 and Activin A in the induction of differentiation from iPS cells to primitive streak mesodermal cells were examined. Specifically, of the addition conditions of Activin A 10 ng/ml, BMP4 10 ng/ml, and IGF-1 10 ng/ml determined in the previous section, the concentration of Activin A alone (FIG. 2A) or BMP4 alone (FIG. 2B) was changed, and the expression of PDGFRα was evaluated by FACS.

iPS-DsRed = test: Induction of differentiation from primitive streak mesodermal cells to skeletal muscle progenitor cells (SM/C-2.6 FACS, Myf5 RT-PCR); type: cell-based, mouse
Method: as §1, §2
RNA was extracted from the recovered cells using Sepasol Reagent (Nacalai Tesque). cDNA was synthesized from the RNA using the SuperScriptll reverse transcription kit (Invitrogen). DNA was amplified by 25-35 cycles of PCR reaction using the ExTaq PCR reagent kit (Takara Bio) and the PTC200 thermal cycler (DNA engine), and analyzed by electrophoresis. The PCR primers shown below were used.
To find a method for effectively inducing the differentiation, the present inventors investigated the potential of the Wnt signal inducer LiCl, used alone or in combination with other growth factors, for inducing the differentiation of iPS cells into skeletal muscle progenitor cells. Selected growth factor candidates, i.e., Sonic Hedgehog (Shh) and IGF-1, were added to the differentiation medium for the last 3 days, and their influences on differentiation into skeletal muscle progenitor cells were examined (FIG. 3A). The iPS cell used was iPS-DsRed. The degree of differentiation into skeletal muscle progenitor cells was analyzed with the expression of SM/C-2.6 as an index. Also analyzed was the expression of Myf5, which is a skeletal muscle-specific transcription factor in the RNA as a whole. SM/C-2.6 is a marker capable of specifically staining satellite cells, which are skeletal muscle stem cells [Fukada, S. et al., Exp Cell Res., 296, 245-255 (2004)], and has been reported to enable the separation of skeletal muscle progenitor cells from a mouse ES cell induction system [Chang, H. et al., Generation of transplantable, functional satellite-like cells from mouse embryonic stem cells. Faseb J., 23: 1907-1919 (2009)].
First, the influence of the addition of Shh was determined. iPS-DsRed was induced to differentiate as illustrated in FIG. 3A. During the last 3 days, the cells were cultured in the presence of LiCl, alone or with the addition of Shh 20 ng/ml; the cells were induced to differentiate for a total of 6 days, stained with SM/C-2.6, and evaluated.

iPS cells = test: Timing of LiCl addition, appearance efficiency of PDGFRα-positive fraction by FACS; type: cell-based, mouse; conditions: continuous addition of LiCl from day 1 or day 2 from start of differentiation induction
Method: A method of increasing the appearance efficiency of skeletal muscle progenitor cells derived from iPS cells was studied. Specifically, LiCl, which was added on day 3 from the start of the differentiation induction in the previous Examples, was added from a different day. Samples with addition of LiCl from day 0, 1, 2, 3 or 4 from the start of the differentiation induction were analyzed for the appearance efficiency of the PDGFRα-positive fraction by FACS analysis. As a result, not less than 60% of the induction efficiency could be reproduced by continuous addition of LiCl from day 1 or day 2 from the start of the differentiation induction (FIG. 8B). This method could also be reproduced with other iPS cell clone (iPS-Ng-20D-17).

[2] = iPS-Nanog-20D-17, Activin A added to all conditions
[3] = IGF-1 experiment, IGF-1-free or IGF-1 added, irrespective of concentration
[4] = induction of skeletal muscle progenitor cells, last 3 days
[5] = Shh experiment, LiCl alone or with Shh during last 3 days

Molecule: insulin-like growth factor-1 [IGF-1]
- differentiation rate (mesoderm differentiation, expression of PDGFRα as an index) ([1]; iPS-Nanog-20D-17, Activin A added to all conditions, with BMP4, starting 3 days): 61.5%
- cell proliferation / survival [1, 2]: Cell proliferation was observed
- viable cell count, IGF-1-alone addition group versus IGF-1-HGF-concurrent addition group ([1]; iPS-Nanog-20D-17, with Activin A): about 3 times
- percentage of SM/C-2.6-positive cells (iPS-DsRed; IGF-1 5 ng/ml addition group, last 3 days): 16.8%
- expression of Myf5 (RT-PCR) (iPS-DsRed; [3]): the expression of Myf5 was evident
- effective concentration (iPS-DsRed; [4]): ≥ 5 ng/mL

Molecule: [Cl-].[Li+] [LiCl, lithium chloride, reference compound]
- percentage of SM/C-2.6-positive cells (iPS-DsRed; IGF-1-free group, last 3 days): 11.9%
- expression of Myf5 (RT-PCR) (iPS-DsRed; [3]): no expression of Myf5 was observed
- expression of Myf5 (RT-PCR) (iPS-DsRed; [5]): not observed at all
- percentage of SM/C-2.6-positive cells (iPS-DsRed; Shh-free group: LiCl alone during last 3 days, total 6 days): 28.5%
- induction efficiency (PDGFRα-positive fraction) (iPS cells): not less than 60%

Molecule: HGF: growth factor candidate examined with Activin A and IGF-1
- cell proliferation / survival [1, 2]: little cells surviving

Molecule: sonic hedgehog [Shh]
- percentage of SM/C-2.6-positive cells (iPS-DsRed; Shh 20 ng/ml addition group, with LiCl, last 3 days, total 6 days): 38.8%
- expression of Myf5 (RT-PCR) (iPS-DsRed; [5]): Myf5 was expressed
- optimal concentration (iPS-DsRed; [4]): about 20 ng/ml

B1: bone morphogenetic protein 4 (protein, UniProt P12644 293-408, looked up)
Bone morphogenetic protein 4: SPKHHSQRARKKNKNCRRHSLYVDFSDVGWNDWIVAPPGYQAFYCHGDCPFPLADHLNSTNHAIVQTLVNSVNSSIPKACCVPTELSAISMLYLDEYDKVVLKNYQEMVVEGCGCR
notes: growth factor (Peprotech) added to the differentiation medium for the first 3 days
- viable cell count when BMP4 concentration decreased ([1]; Activin A 10 ng/ml, IGF-1 10 ng/ml): remained nearly constant
- percentage of PDGFRα-positive cells ([1]; BMP4 10 ng/ml, Activin A 10 ng/ml, IGF-1 10 ng/ml): 44.7%
- percentage of PDGFRα-positive cells ([1]; BMP4 at all concentrations of 5 ng/ml or less, Activin A 10 ng/ml, IGF-1 10 ng/ml): 25-28%

B2: Activin A (protein, UniProt P08476 311-426, looked up)
Inhibin beta A chain: GLECDGKVNICCKKQFFVSFKDIGWNDWIIAPSGYHANYCEGECPSHIAGTSGSSLSFHSTVINHYRMRGHSPFANLKSCCVPTKLRPMSMLYYDDGQNIIKKDIQNMIVEECGCS
modifications: Inhibin beta A chain
notes: as for B1
- percentage of PDGFRα-positive cells induced ([1]; Activin A at 5 ng/ml or more, BMP4 10 ng/ml, IGF-1 10 ng/ml): exceeded 40%
- viable cell count for Activin A 0 ng/ml compared with 10 ng/ml ([1]; BMP4 10 ng/ml, IGF-1 10 ng/ml): about one-sixth level
- concentrations at which more effective ([1]; based on PDGFRα-positive percentage and viable cell count): 5 to 10 ng/mL
- cell proliferation / survival [1, 2]: some cells survived
